{
  "source": "patent US20220226339A1",
  "about": "“INHIBITATION OF ACID LIPASE FOR CANCER THERAPY” (Heinrich-Heine-Universität Düsseldorf, priority 2019, published 2022)",
  "key": {"MDA-MB-231 cancer cells [1]": {"test_system": "MDA-MB-231 cancer cells", "test": "Cell proliferation of MDA-MB-231 cancer cells (CellTiterGlo)", "type": "cell-based, human", "details": "MDA-MB-231, 3 days, 15% FCS RPMI, Lalistat concentrations descending from 50 μM, non-cell-toxic range", "description": "Cell proliferation was ascertained using Cell-TiterGlo®.\nMDA-MB-231 cancer cells were incubated with Lalistat 2 (selective LAL inhibitor) or the formulation control (mock).\nMDA-MB-231 cancer cells were incubated with Lalistat 2 (selective LAL inhibitor) or the formulation control (mock). For the formulation control, […] alone was used with the same concentration of DMSO as for Lalistat 2. 24 hours after seeding, the cancer cells were incubated for 3 days in 15% FCS-containing RPMI medium having concentrations of Lalistat descending from 50 μM or the corresponding DMSO concentration as control. Subsequently, CellTiterGlo® (Promega) was used to quantify the number of vital cancer cells."}, "MDA-MB-231 cancer cells [2]": {"test_system": "MDA-MB-231 cancer cells", "test": "Relative expression of tumor stem cell markers and vimentin by quantitative PCR", "type": "cell-based, human", "details": "MDA-MB-231, 6 days, 50 μM Lalistat vs 0.05% DMSO", "description": "24 hours after seeding, MDA-MB-231 cancer cells were incubated for 6 days in 15% FCS-containing RPMI medium containing 50 μM Lalistat or formulation control (0.05% DMSO). Subsequently, the relative expression of the (A-C) tumor stem cell markers ALDH1, CD44 and the ratio CD44/CD24 and of the (D) mesenchymal marker vimentin was analyzed by means of quantitative PCR. The values were normalized to the housekeepers GAPDH or HRPT1. The target was amplified in a singleplex assay using “SYBR Green”.\nThe results of two independent experiments with three biological replicates in each case are depicted. Significance difference compared to formulation control: ALDH: 0.0026 (GAPDH), 0.0004 (HRPT1); CD44: […] (GAPDH/HRPT1); CD44/CD24: <0.01"}, "[3]": {"test_system": "PD-L1 expression on cancer cells", "test": "PD-L1 expression on cancer cells after Lalistat treatment", "type": "cell-based"}},
  "data": [
    {"compound": "O=C(Oc1nsnc1N1CCCCC1)N1CCCCC1", "note": "[Lalistat 2, 4-(piperidin-1-yl)-1,2,5-thiadiazol-3-yl piperidine-1-carboxylate]", "values": [
      {"measurement": "cell proliferation compared to formulation control", "setting": "MDA-MB-231 cancer cells [1]", "result": "antiproliferative effect"},
      {"measurement": "cell proliferation compared to formulation control", "setting": "MDA-MB-231 cancer cells [1]; listed as Lalistat", "result": "distinct inhibition of cell proliferation"},
      {"measurement": "expression of mesenchymal marker vimentin", "setting": "MDA-MB-231 cancer cells [2]; qPCR", "result": "reduction in the expression"},
      {"measurement": "expression of (tumor) stem cell markers (ALDH1, CD44, ratio CD44/CD24)", "setting": "MDA-MB-231 cancer cells [2]; qPCR normalized to GAPDH or HRPT1", "result": "reduction in the expression"},
      {"measurement": "PD-L1 expression on cancer cells", "setting": "[3]", "result": "reduced PD-L1 expression"}
    ]}
  ]
}
